Laboratory results reported in PMC4215513, “Effect of the Pleiotropic Drug CNB-001 on Tissue Plasminogen Activator (tPA) Protease Activity in vitro: Support for Combination Therapy to Treat Acute Ischemic Stroke” (Journal of neurology & neurophysiology, 2014).
Structures can show the parent of a compound that is named as a salt.

How the values were obtained:
[1] = molecular target: T1, tissue plasminogen activator (tPA) (Homo sapiens, UniProt P00750); test: chromogenic substrate protease assay with recombinant tPA; […] inhibition at […]; IC50 extrapolated ([…] min […], […] min […]); format: biochemical
T1 construct: gene PLAT; Human recombinant tPA (Activase)

[2] = molecular target: T1, tissue plasminogen activator (tPA); test: chromogenic substrate protease assay with recombinant tPA (positive control inhibitor); format: biochemical

T1 sequence (P00750 36-562): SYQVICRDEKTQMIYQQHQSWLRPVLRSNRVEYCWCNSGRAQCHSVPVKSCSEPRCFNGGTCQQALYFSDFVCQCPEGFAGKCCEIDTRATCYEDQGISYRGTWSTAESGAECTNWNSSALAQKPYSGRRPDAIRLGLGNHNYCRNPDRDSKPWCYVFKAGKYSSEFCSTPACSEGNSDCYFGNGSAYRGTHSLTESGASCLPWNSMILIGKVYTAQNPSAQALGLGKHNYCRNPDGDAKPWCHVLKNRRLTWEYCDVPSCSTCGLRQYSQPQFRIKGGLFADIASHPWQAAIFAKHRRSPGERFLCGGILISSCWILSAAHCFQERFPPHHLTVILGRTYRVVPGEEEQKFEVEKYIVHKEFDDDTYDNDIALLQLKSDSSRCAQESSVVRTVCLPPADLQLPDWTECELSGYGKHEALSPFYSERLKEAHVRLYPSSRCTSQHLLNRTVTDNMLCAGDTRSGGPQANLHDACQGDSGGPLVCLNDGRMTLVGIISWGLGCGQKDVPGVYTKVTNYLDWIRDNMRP

| Compound | IC50 [1] [µM] | inhibition at 5 µM [2] [%] |
| --- | --- | --- |
| COc1cc(/C=C/c2cc(/C=C/c3ccc(O)c(OC)c3)n(-c3ccccc3)n2)ccc1O [CNB-001] | ~65.2 |  |
| N=C(N)c1ccc(C=C2CCCCC(=Cc3ccc(C(=N)N)cc3)C2=O)cc1 [tPA-STOP, 2,7-Bis-(4-amidinobenzylidene)-cycloheptan-1-one dihydrochloride] |  | 83.4 |
